Data as given in patent US20080085886A1, “Aza-benzofuranyl compounds and methods of use” (GENENTECH, INC., priority 2006, published 2008).
Where a name gives a salt, the structure may show the parent alone.

Experiments:
[1] = test system: cellular p-ERK in HCT116 human colorectal carcinoma / A375 human malignant melanoma cell lines; assay: Phospho-ERK cell-based assay (ELISA), Example 4; details: in either one of the cell lines (HCT116, A375), 2 h or 24 h exposure
Description: Example 4 Phospho-ERK Cell-Based Assay
Compounds are tested in a cell-based phospho-ERK ELISA using the following cell lines:
HCT116 human colorectal carcinoma (ATCC)
(§1) A375 human malignant melanoma (ATCC)
(§2) Both cell lines are maintained in DMEM/F12 (1:1) media (Gibco) supplemented with 10% FCS at 37° C. in a 5% CO2 humidified incubator.
Cells are seeded in 96-well plates at 2,000 cells/well and after 24 h they are exposed to different concentrations of compounds in 0.83% DMSO. Cells are grown for a further 2 h or 24 h, fixed with formaldehyde (2% final) and permeabilised with methanol. Following blocking with TBST-3% BSA, fixed cells are incubated with primary antibody (anti-phospho ERK from rabbit) over-night at 4° C. Cells are incubated with Propidium Iodide (DNA fluorescent dye) and detection of cellular p-ERK is performed using an anti-rabbit secondary antibody conjugated to the fluorescent Alexa Fluor 488 dye (Molecular probes). The fluorescence is analysed using the Acumen Explorer (TTP Labtech), a laser-scanning microplate cytometer, and the Alexa Fluor 488 signal is normalised to the PI signal (proportional to cell number).
The EC50 is defined as the concentration at which a given compound achieves a signal half way between the baseline and the maximum response. EC50 values are calculated using the XLfit software package (version 2.0.5).

[2] = test system: HCT 116 human colorectal carcinoma / A375 human malignant melanoma cell lines; assay: Cell proliferation assay (CellTiter-Glo), Example 3; type: cell-based; details: in either one of the cell lines (HCT 116, A375), 72 h
Description: Example 3 Cell Proliferation Assay
Compounds are tested in a cell proliferation assay using the following cell lines:
HCT 116 human colorectal carcinoma (ATCC)
as §1, §2
Cells are seeded in 96-well plates at 2,000 cells/well and after 24 hours they are exposed to different concentrations of compounds in 0.83% DMSO. Cells are grown for a further 72 h, and an equal volume of CellTiter-Glo reagent (Promega) is added to each well. This lyses the cells and generates a luminescent signal proportional to the amount of ATP released (and therefore proportional to the number of cells in the well) that can be detected using a multiwell luminometer.
EC50 values are calculated using the XLfit software package (version 2.0.5).

Work on `O=C(NO[C@H]1CCNC1)c1oc2ccncc2c1Nc1ccc(I)cc1F` [Example 38, 3-(2-Fluoro-4-iodo-phenylamino)-furo[3,2-c]pyridine-2-carboxylic acid ((S)-pyrrolidin-3-yloxy)-amide mono formate salt] yielded an EC50 [1] of under 10 µM and an EC50 [2] of under 10 µM.
Compound `O=C(NOCCO)c1oc2c(Cl)cncc2c1Nc1ccc(I)cc1F` [Example 39, 7-Chloro-3-(2-fluoro-4-iodo-phenyl-amino)-furo[3,2-c]pyridine-2-carboxylic acid (2-hydroxy-ethoxy)-amide] has an EC50 [1] of under 10 µM and an EC50 [2] of under 10 µM.
`O=C(NOC1CNC1)c1oc2ccncc2c1Nc1ccc(I)cc1F` [Example 41, 3-(2-Fluoro-4-iodo-phenylamino)-furo[3,2-c]pyridine-2-carboxylic acid (azetidin-3-yloxy)-amide mono formate salt] gave an EC50 [1] of under 10 µM and an EC50 [2] of under 10 µM.
Work on `CS(=O)(=O)NCCONC(=O)c1oc2ccncc2c1Nc1ccc(I)cc1F` [Example 109, 3-(2-Fluoro-4-iodo-phenylamino)-furo[3,2-c]pyridine-2-carboxylic acid (2-methanesulfonylamino-ethoxy)-amide] yielded an EC50 [1] of under 10 µM and an EC50 [2] of under 10 µM.
For `O=C(NOCCO)c1oc2c(-c3ccccc3)cncc2c1Nc1ccc(I)cc1F` [Example 133, 3-(2-Fluoro-4-iodo-phenylamino)-7-phenyl-furo[3,2-c]pyridine-2-carboxylic acid (2-hydroxy-ethoxy)-amide], the EC50 [1] was under 10 µM and the EC50 [2] was under 10 µM.
For `Cc1cncc2c(Nc3ccc(I)cc3F)c(C(=O)NOCCO)oc12` [Example 134, 3-(2-Fluoro-4-iodo-phenylamino)-7-methyl-furo[3,2-c]pyridine-2-carboxylic acid (2-hydroxy-ethoxy)-amide], the EC50 [1] was under 10 µM and the EC50 [2] was under 10 µM.
Work on `O=C(NOC[C@H](O)CO)c1oc2c(Cl)cncc2c1Nc1ccc(I)cc1F` [Example 138, 7-Chloro-3-(2-fluoro-4-iodo-phenylamino)-furo[3,2-c]pyridine-2-carboxylic acid ((R)-2,3-dihydroxy-propoxy)-amide] yielded an EC50 [1] of under 10 µM and an EC50 [2] of under 10 µM.
Work on `O=C(NOC1CCCNC1)c1oc2ccncc2c1Nc1ccc(I)cc1F` (centres unmarked) [Example 140, 3-(2-Fluoro-4-iodo-phenylamino)-furo[3,2-c]pyridine-2-carboxylic acid (piperdin-3-yloxy)-amide] yielded an EC50 [1] of under 10 µM and an EC50 [2] of under 10 µM.
With `O=C(NOC[C@@H]1CCCN1)c1oc2ccncc2c1Nc1ccc(I)cc1F` [Example 141, 3-(2-Fluoro-4-iodo-phenylamino)-furo[3,2-c]pyridine-2-carboxylic acid ((S)-1-pyrrolidin-2-ylmethoxy)-amide] the EC50 [1] was under 10 µM and the EC50 [2] was under 10 µM.
With `O=C(c1oc2ccncc2c1Nc1ccc(I)cc1F)N1C[C@H](O)[C@@H](O)[C@H]1CO` [Example 160, (3-(2-fluoro-4-iodophenylamino)furo[3,2-c]pyridin-2-yl)((2R,3S,4S)-3,4-dihydroxy-2-(hydroxymethyl)pyrrolidin-1-yl)methanone] the EC50 [1] was under 10 µM and the EC50 [2] was under 10 µM.
